Results as given in ChEMBL document CHEMBL1144919, “Synthesis of novel thrombin inhibitors. Use of ring-closing metathesis reactions for synthesis of P2 cyclopentene- and cyclohexenedicarboxylic acid derivatives” (J Med Chem, 2003).

Biological target: Prothrombin (Homo sapiens, UniProt P00734)
Assay: In vitro inhibitory concentration of compound against human thrombin

Row | IC50 [nM] | SMILES
1 | 49 | COc1ccc(OC)c(N(C(=O)C2=CCCC2C(=O)NCc2ccc(C(=N)N)cc2)C2CCCCC2)c1 (stereo not given)
2 | 220 | CCN(C(=O)C1=CCCC1C(=O)NCc1ccc(C(=N)N)cc1)c1cc(Cl)ccc1C (stereo not given)
3 | 970 | CCN(C(=O)C1=CCCC1C(=O)NCc1ccc(C(=N)N)cc1)c1ccccc1 (stereo not given)
4 | 1300 | Cc1ccccc1N(CC(=O)O)C(=O)C1=CCCC1C(=O)NCc1ccc(C(=N)N)cc1 (stereo not given)
5 | 19000 | N=C(N)c1ccc(CNC(=O)C2=C(C(=O)NC3CCCCC3)CCC2)cc1
6 | 23000 | CCN(C(=O)C1=C(C(=O)NCc2ccc(C(=N)N)cc2)CCC1)c1cc(Cl)ccc1C
7 | 38000 | N=C(N)c1ccc(CNC(=O)C2CCCC=C2C(=O)N2CCCCC2)cc1 (stereo not given)
8 | 3400 | CC1Cc2ccccc2N1C(=O)C1=CCCC1C(=O)NCc1ccc(C(=N)N)cc1 (stereo not given)
9 | 270 | CCc1cccc(N(CC)C(=O)C2=CCCC2C(=O)NCc2ccc(C(=N)N)cc2)c1 (stereo not given)
10 | 0.017 | N=C(N)NCCC[C@H](NC(=O)[C@@H]1CCCN1C(=O)C(N)Cc1ccccc1)C(=O)O (stereo in doubt)
11 | 630 | CCN(C(=O)C1=CCCC1C(=O)NCc1ccc(C(=N)N)cc1)c1cccc(F)c1 (stereo not given)
12 | 680 | CCN(C(=O)C1=CCCC1C(=O)NCc1ccc(C(=N)N)cc1)c1ccccc1C (stereo not given)
13 | 3800 | CCN(C(=O)C1=CCCCC1C(=O)NCc1ccc(C(=N)N)cc1)c1ccccc1 (stereo not given)
14 | 250 | CCN(C(=O)C1=CCCC1C(=O)NCc1ccc(C(=N)N)cc1)c1ccccc1OC (stereo not given)
15 | 28000 | CCN(C(=O)C1=C(C(=O)NCc2ccc(C(=N)N)cc2)CCC1)c1ccccc1
16 | 93000 | CCN(C(=O)C1CCC=C1C(=O)NCc1ccc(C(=N)N)cc1)c1ccccc1F (stereo not given)
17 | > 130000 | N=C(N)c1ccc(CNC(=O)C2=C(C(=O)N3CCc4ccccc43)CCC2)cc1
18 | > 130000 | N=C(N)c1ccc(CNC(=O)C2CCCC=C2C(=O)NC2CCCCC2)cc1 (stereo not given)

Row | IC50 [nM] | SMILES
19 | 120000 | Cc1ccccc1N(CC(=O)O)C(=O)C1=C(C(=O)NCc2ccc(C(=N)N)cc2)CCC1
20 | 24000 | CCN(C(=O)C1=C(C(=O)NCc2ccc(C(=N)N)cc2)CCC1)c1cccc(OC)c1
21 | 390 | CCN(C(=O)C1=CCCC1C(=O)NCc1ccc(C(=N)N)cc1)c1cccc(Cl)c1 (stereo not given)
22 | 260 | CCc1cccc(N(C(=O)C2=CCCC2C(=O)NCc2ccc(C(=N)N)cc2)C2CCCCC2)c1 (stereo not given)
23 | 120 | CCN(C(=O)C1=CCC[C@H]1C(=O)NCc1ccc(C(=N)N)cc1)c1cccc(OC)c1
24 | 940 | CCN(C(=O)C1=CCCC1C(=O)NCc1ccc(C(=N)N)cc1)c1ccc(OC)cc1 (stereo not given)
25 | 4600 | CCN(C(=O)C1=CCCCC1C(=O)NCc1ccc(C(=N)N)cc1)c1ccccc1C (stereo not given)
26 | 6000 | N=C(N)c1ccc(CNC(=O)C2CCC=C2C(=O)N2CCCCC2)cc1 (stereo not given)
27 | 16000 | CCN(C(=O)C1CCC=C1C(=O)NCc1ccc(C(=N)N)cc1)c1ccccc1 (stereo not given)
28 | 130000 | N=C(N)c1ccc(CNC(=O)C2CCCC=C2C(=O)Nc2ccccc2)cc1 (stereo not given)
29 | 240 | CCN(C(=O)C1=CCCC1C(=O)NCc1ccc(C(=N)N)cc1)c1cccc(OC)c1 (stereo not given)
30 | 210 | CCN(C(=O)C1=CCCC1C(=O)NCc1ccc(C(=N)N)cc1)c1cc(OC)cc(OC)c1 (stereo not given)
31 | 109000 | N=C(N)c1ccc(CNC(=O)C2CCCC=C2C(=O)NCc2ccccc2)cc1 (stereo not given)
32 | 4600 | N=C(N)c1ccc(CNC(=O)C2CCC=C2C(=O)N2CCc3ccccc32)cc1 (stereo not given)
33 | 350 | CCN(C(=O)C1=CCCC1C(=O)NCc1ccc(C(=N)N)cc1)c1ccccc1F (stereo not given)
34 | 73 | CCN(C(=O)C1=CCCC1C(=O)NCc1ccc(C(=N)N)cc1)c1cc(OC)ccc1OC (stereo not given)
35 | 7800 | CCN(C(=O)C1CCC=C1C(=O)NCc1ccc(C(=N)N)cc1)c1cccc(OC)c1 (stereo not given)
